What was measured:
Conditions in all cases: exposure time: 72 h
[1] = test system: E57 (patient-derived glioblastoma stem cells of mesenchymal subtype); test: phenotypic distance (Euclidean, principal components) from DMSO controls (arbitrary units); higher = stronger morphological change
[2] = test system: E21 (patient-derived glioblastoma stem cells of mesenchymal subtype); test: as above
[3] = test system: E13 (patient-derived glioblastoma stem cells of classical subtype); test: as above
[4] = test system: E31 (patient-derived glioblastoma stem cells of proneural subtype); test: as above
[5] = test system: E28 (patient-derived glioblastoma stem cells of classical subtype); test: as above
[6] = test system: E34 (patient-derived glioblastoma stem cells of proneural subtype); test: as above
[7] = test system: FT3469 (normal neural stem cell line); test: as above
[8] = test system: E57; test: surviving fraction (nuclei count normalised to DMSO); higher = more cells surviving (less toxic)
[9] = test system: E21; test: as above
[10] = test system: E13; test: as above
[11] = test system: E31; test: as above
[12] = test system: E28; test: as above
[13] = test system: E34; test: as above
[14] = test system: FT3469; test: as above
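Wherever phenotypic distance (Euclidean, principal components) from DMSO controls is given: cell Painting imaging in 384-well plates, CellProfiler features reduced to at least 20 principal components, Euclidean distance versus same-plate DMSO vehicle wells (0.1% v/v), median over six images per well.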
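Wherever surviving fraction (nuclei count normalised to DMSO) is given: nuclei counted by high-content imaging of Hoechst-stained cells in laminin-coated 384-well plates, relative to 0.1% DMSO vehicle wells, with staurosporine as cell-death control.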

COC(=O)Nc1nc2cc(Sc3ccccc3)ccc2[nH]1 [Fenbendazole]
Conditions	phenotypic distance	surviving fraction
[1], 4.1 nM	0.515	–
[1], 12.3 nM	0.484	–
[1], 37 nM	1.23	–
[1], 111.1 nM	1.6	–
[1], 333.3 nM	2.13	–
[1], 1000 nM	4.89	–
[1], 3000 nM	4.66	–
[2], 4.1 nM	0.689	–
[2], 12.3 nM	0.58	–
[2], 37 nM	1.03	–
[2], 111.1 nM	1.63	–
[2], 333.3 nM	2.19	–
[2], 1000 nM	7.35	–
[2], 3000 nM	5.94	–
[3], 4.1 nM	0.824	–
[3], 12.3 nM	0.763	–
[3], 37 nM	0.771	–
[3], 111.1 nM	1.88	–
[3], 333.3 nM	3.45	–
[3], 1000 nM	6.64	–
[3], 3000 nM	6.13	–
[4], 4.1 nM	0.332	–
[4], 12.3 nM	0.747	–
[4], 37 nM	0.989	–
[4], 111.1 nM	1.13	–
[4], 333.3 nM	1.96	–
[4], 1000 nM	6.33	–
[4], 3000 nM	5.86	–
[5], 4.1 nM	0.869	–
[5], 12.3 nM	0.342	–
[5], 37 nM	0.965	–
[5], 111.1 nM	1.03	–
[5], 333.3 nM	1.48	–
[5], 1000 nM	3.39	–
[5], 3000 nM	3.63	–
[6], 4.1 nM	0.744	–
[6], 12.3 nM	0.832	–
[6], 37 nM	0.751	–
[6], 111.1 nM	0.935	–
[6], 333.3 nM	1.56	–
[6], 1000 nM	4.45	–
[6], 3000 nM	5.29	–
[7], 4.1 nM	0.898	–
[7], 12.3 nM	0.598	–
[7], 37 nM	0.489	–
[7], 111.1 nM	1.42	–
[7], 333.3 nM	1.54	–
[7], 1000 nM	2.9	–
[7], 3000 nM	2.71	–
[8], 4.1 nM	–	1
[8], 12.3 nM	–	1.05
[8], 37 nM	–	1.06
[8], 111.1 nM	–	0.964
[8], 333.3 nM	–	0.841
[8], 1000 nM	–	0.0618
[8], 3000 nM	–	0.0799
[9], 4.1 nM	–	1.07
[9], 12.3 nM	–	1.02
[9], 37 nM	–	0.982
[9], 111.1 nM	–	0.874
[9], 333.3 nM	–	0.941
[9], 1000 nM	–	0.105
[9], 3000 nM	–	0.122
[10], 4.1 nM	–	1.02
[10], 12.3 nM	–	1.07
[10], 37 nM	–	1.05
[10], 111.1 nM	–	0.86
[10], 333.3 nM	–	0.548
[10], 1000 nM	–	0.179
[10], 3000 nM	–	0.236
[11], 4.1 nM	–	1.12
[11], 12.3 nM	–	0.906
[11], 37 nM	–	0.836
[11], 111.1 nM	–	0.749
[11], 333.3 nM	–	0.526
[11], 1000 nM	–	0.0787
[11], 3000 nM	–	0.0818
[12], 4.1 nM	–	1
[12], 12.3 nM	–	1.09
[12], 37 nM	–	1.1
[12], 111.1 nM	–	0.927
[12], 333.3 nM	–	1.07
[12], 1000 nM	–	0.359
[12], 3000 nM	–	0.304
[13], 4.1 nM	–	1.06
[13], 12.3 nM	–	0.988
[13], 37 nM	–	0.935
[13], 111.1 nM	–	1.01
[13], 333.3 nM	–	0.795
[13], 1000 nM	–	0.361
[13], 3000 nM	–	0.349
[14], 4.1 nM	–	1.03
[14], 12.3 nM	–	1.1
[14], 37 nM	–	0.864
[14], 111.1 nM	–	1.02
[14], 333.3 nM	–	0.864
[14], 1000 nM	–	0.511
[14], 3000 nM	–	0.622
